Molecules are shown by their SMILES.

One may read the IC50 as the concentration needed to halve the response being measured. The low end stands for greater potency, the high end for weaker potency.

In this test the target is PIK3CA (human) (UniProt P42336). Nature of the test: Assessment of PIK3CA Kinase Activity.
Sequence of PIK3CA (human) (P42336 whole entry, looked up): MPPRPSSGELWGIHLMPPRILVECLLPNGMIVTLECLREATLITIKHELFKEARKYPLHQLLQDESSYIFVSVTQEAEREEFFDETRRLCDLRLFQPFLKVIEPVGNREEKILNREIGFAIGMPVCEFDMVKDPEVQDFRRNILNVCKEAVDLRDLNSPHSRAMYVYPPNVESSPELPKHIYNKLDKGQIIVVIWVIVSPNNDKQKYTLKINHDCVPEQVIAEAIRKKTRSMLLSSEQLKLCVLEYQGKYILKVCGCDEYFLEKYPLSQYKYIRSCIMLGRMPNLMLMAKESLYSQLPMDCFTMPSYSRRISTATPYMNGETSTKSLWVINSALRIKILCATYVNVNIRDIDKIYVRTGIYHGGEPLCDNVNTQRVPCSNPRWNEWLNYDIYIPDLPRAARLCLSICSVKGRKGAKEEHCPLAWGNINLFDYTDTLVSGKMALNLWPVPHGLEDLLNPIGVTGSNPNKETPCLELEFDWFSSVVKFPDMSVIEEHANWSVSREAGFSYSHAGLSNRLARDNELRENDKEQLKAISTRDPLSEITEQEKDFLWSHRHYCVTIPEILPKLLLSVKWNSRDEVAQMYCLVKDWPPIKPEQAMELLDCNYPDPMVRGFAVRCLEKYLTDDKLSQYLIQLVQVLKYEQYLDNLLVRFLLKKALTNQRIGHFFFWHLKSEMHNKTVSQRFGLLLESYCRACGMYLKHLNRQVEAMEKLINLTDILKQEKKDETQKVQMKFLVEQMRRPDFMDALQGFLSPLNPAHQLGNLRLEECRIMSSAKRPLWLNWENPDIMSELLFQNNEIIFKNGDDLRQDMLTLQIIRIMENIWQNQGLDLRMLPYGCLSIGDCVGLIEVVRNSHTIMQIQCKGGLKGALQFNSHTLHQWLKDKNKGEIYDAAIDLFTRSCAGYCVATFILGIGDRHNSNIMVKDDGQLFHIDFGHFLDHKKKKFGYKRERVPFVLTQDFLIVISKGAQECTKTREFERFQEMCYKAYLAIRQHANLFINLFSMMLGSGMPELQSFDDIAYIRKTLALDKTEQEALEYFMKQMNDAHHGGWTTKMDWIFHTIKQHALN
Take `CCNc1nc2cc(-c3ccc4c(c3)CN(c3nc(N)nc(C)c3C(C)C)CCO4)ccc2[nH]1`: the IC50 is not above 100 nM.
For `Cc1nc2cc(-c3ccc4c(c3)CN(c3nc(CN(C)C)nc(C)c3Cl)CCO4)ccc2[nH]1` the value was 100 to 500 nM.
Under `Cc1nc2cc(-c3ccc4c(c3)CN(c3nc(NC5CNC5)nc(C)c3Cc3ccc(F)cc3)CCO4)ccc2[nH]1` stands not above 100 nM; under `CCCc1c(C)nc(CN(C)C)nc1N1CCOc2ccc(-c3ccc4nc(C)[nH]c4c3)cc2C1`, not above 100 nM.
The molecule `CC(=O)OCc1nc(C)c(C(C)C)c(N2CCOc3ccc(-c4ccc5nc(C)[nH]c5c4)cc3C2)n1` gave an IC50 not above 100 nM.
For `COCCOc1cc(-c2ccc3c(c2)CN(c2nc(CN(C)C)nc4c2CC(C)(C)CC4)CCO3)ccc1OC` the value was not above 100 nM.
For `Cc1nc2ccc(-c3cc(F)c4c(c3)CN(c3nc(N)nc(C)c3C(C)C)CCO4)cc2[nH]1` the value was not above 100 nM; for `Cc1nc(N)nc(N2CCOc3ccc(-c4ccc5[nH]cnc5c4)cc3C2)c1Cc1ccc(F)cc1`, not above 100 nM.
Under `C=CCc1c(C)nc(N)nc1N1CCOc2ccc(-c3ccc4nc(C)[nH]c4c3)cc2C1` stands not above 100 nM; under `COc1ccc(-c2ccc3c(c2)CN(c2nc(CN(C)C)nc4c2CC(C)(C)CC4)CCO3)cc1C(C)=O`, 100 to 500 nM; under `COC(=O)Cc1c(C)nc(CN(C)C)nc1N1CCOc2ccc(-c3ccc4nc(C)[nH]c4c3)cc2C1`, not above 100 nM.
Consider `Cc1nc2cc(-c3ccc4c(c3)CN(c3nc(CN(C)C)nc(C)c3CC(C)C)CCO4)ccc2[nH]1`, for which the IC50 fell in the range of 100 to 500 nM.
For `Cc1nc2cc(-c3ccc4c(c3)CN(c3nc(CF)nc5c3CC(C)(C)CC5)CCO4)ccc2[nH]1` the value was not above 100 nM.
With `COc1ccc(-c2ccc3c(c2)CN(c2nc(CN(C)C)nc4c2CC(C)(C)CC4)CCO3)cc1S(C)(=O)=O`, the IC50 is not above 100 nM.
Molecule `COc1ccc2c(N3CCOc4ccc(-c5ccc6[nH]cnc6c5)cc4C3)nc(CN(C)C)nc2c1` came in with an IC50 not above 100 nM.
Under `Cc1nc(N)nc(N2CCOc3ccc(-c4ccc5[nH]cnc5c4)cc3C2)c1C(C)C` stands not above 100 nM; under `Cc1nc2cc(-c3ccc4c(c3)CN(c3nc(C(C)N)nc5c3CC(C)(C)CC5)CCO4)ccc2[nH]1` (stereo not given), not above 100 nM.
`CC(=O)NCc1nc2c(c(N3CCOc4ccc(-c5ccc6[nH]c(C)nc6c5)cc4C3)n1)CC(C)(C)CC2` came in with an IC50 not above 100 nM.
For `Cc1nc2cc(-c3ccc4c(c3)CN(c3nc(NCCCN(C)C)nc(C)c3Cc3ccc(F)cc3)CCO4)ccc2[nH]1` the value was 100 to 500 nM; for `C=CCc1c(C)nc(CN(C)C)nc1N1CCOc2ccc(-c3ccc4nc(C)[nH]c4c3)cc2C1`, not above 100 nM.
For `Cc1nc2ccc(-c3ccc4c(c3)CN(c3nc(CO)nc(C)c3C(C)C)CCO4)cc2[nH]1` the value was not above 100 nM; for `Cc1nc2cc(-c3ccc4c(c3)CN(c3nc(N)nc(C)c3C(C)C)CCO4)cnc2[nH]1`, not above 100 nM.
Under `COc1ccc2c(N3CCOc4ccc(-c5ccc6[nH]c(C)nc6c5)cc4C3)nc(CN(C)C)nc2c1` stands not above 100 nM; under `Cc1nc2cc(-c3ccc4c(c3)CN(c3nc(CN(C)C)nc(C)c3CCCF)CCO4)ccc2[nH]1`, not above 100 nM; under `Cc1nc2ccc(-c3ccc4c(c3)CN(c3nc(CN(C)C)nc(C)c3C)CCO4)cc2[nH]1`, not above 100 nM.
Take `CCN(CC)Cc1nc(C)c(C(C)C)c(N2CCOc3ccc(-c4ccc5nc(C)[nH]c5c4)cc3C2)n1`: the IC50 is not above 100 nM.
For `COCCc1c(C)nc(CN(C)C)nc1N1CCOc2ccc(-c3ccc4nc(C)[nH]c4c3)cc2C1` the value was not above 100 nM; for `CC1(C)CCc2nc(N)nc(N3CCOc4ccc(-c5ccc6[nH]cnc6c5)cc4C3)c2C1`, not above 100 nM.
With `COC(=O)Nc1nc2cc(-c3ccc4c(c3)CN(c3nc(N)nc(C)c3C(C)C)CCO4)ccc2[nH]1`, the IC50 is not above 100 nM.
For `Cc1nc2cc(-c3ccc4c(c3)CN(c3nc(NCCN(C)C)nc(C)c3Cc3ccc(F)cc3)CCO4)ccc2[nH]1` the value was not above 100 nM; for `COc1ccc(-c2ccc3c(c2)CN(c2nc(N)nc(C)c2C(C)C)CCO3)cc1NS(C)(=O)=O`, 100 to 500 nM.
Under `Cc1nc2cc(-c3ccc4c(c3)CN(c3nc(CN(C)C)nc(C)c3Br)CCO4)ccc2[nH]1` stands not above 100 nM.
For `Cc1nc(N)nc(N2CCOc3ccc(-c4cnc5[nH]cnc5c4)cc3C2)c1C(C)C` the value was not above 100 nM.
In turn, `Cc1nc2cc(-c3ccc4c(c3)CN(c3nc(N)nc(C)c3C(C)C)CCO4)ccc2[nH]1` returned an IC50 not above 100 nM.
For `Cc1nc2cc(-c3ccc4c(c3)CN(c3nc(NC5CNC5)nc(C)c3C(C)C)CCO4)ccc2[nH]1` the value was not above 100 nM; for `Cc1nc2cc(-c3ccc4c(c3)CN(c3nc(N)nc5c3CC(C)(C)CC5)CCO4)ccc2[nH]1`, not above 100 nM; for `CC1(C)CCc2nc(N)nc(N3CCOc4ccc(-c5cnc6[nH]cnc6c5)cc4C3)c2C1`, not above 100 nM.
As to `COc1ccc2c(N3CCOc4ccc(-c5cnc6[nH]cnc6c5)cc4C3)nc(CN(C)C)nc2c1`, the IC50 is not above 100 nM.
Under `Cc1nc2ncc(-c3ccc4c(c3)CN(c3nc(N)nc5c3CC(C)(C)CC5)CCO4)cc2[nH]1` stands not above 100 nM; under `Cc1nc2cc(-c3ccc4c(c3)CN(c3nc(N)nc(C)c3Cc3ccc(F)cc3)CCO4)ccc2[nH]1`, not above 100 nM.
As for `Cc1nc2cc(-c3ccc4c(c3)CN(c3nc(CNCCF)nc(C)c3C(C)C)CCO4)ccc2[nH]1`, the IC50 is not above 100 nM.
The molecule `Cc1nc2cc(-c3ccc4c(c3)CN(c3cc(N)ncc3C#N)CCO4)ccc2[nH]1` returned an IC50 not above 100 nM.
The molecule `Cc1nc(N)nc(N2CCOc3ccc(-c4cnc5[nH]c(N)nc5c4)cc3C2)c1C(C)C` registered an IC50 not above 100 nM.
Under `Cc1nc2cc(-c3ccc4c(c3)CN(c3nc(CN5CCCC5)nc(C)c3C(C)C)CCO4)ccc2[nH]1` stands not above 100 nM; under `Cc1nc(N)nc(N2CCOc3ccc(-c4cnc5[nH]cnc5c4)cc3C2)c1Cc1ccc(F)cc1`, not above 100 nM.
For `Cc1nc2cc(-c3ccc4c(c3)CN(c3nc(N)nc(C)c3Cc3ccc(F)cc3)CCO4)cnc2[nH]1` the value was not above 100 nM.
For `CCNc1nc(C)c(Cc2ccc(F)cc2)c(N2CCOc3ccc(-c4ccc5[nH]c(C)nc5c4)cc3C2)n1` the value was 100 to 500 nM.
Consider `Cc1nc2cc(-c3ccc4c(c3)CN(c3nc(CN(C)C)nc(C)c3-c3ccccc3)CCO4)ccc2[nH]1`, for which the IC50 was 100 to 500 nM.
Under `COc1ccc(-c2ccc3c(c2)CN(c2nc(CN(C)C)nc(C)c2C(C)C)CCO3)cc1NS(C)(=O)=O` stands not above 100 nM; under `COc1ccc(-c2ccc3c(c2)CN(c2nc(CN(C)C)nc4c2CC(C)(C)CC4)CCO3)cc1OC(F)F`, not above 100 nM.

For the origin of these results see the Kinase Knowledgebase extract (Sharma et al. 2016).
